What was measured:
[1] = tested on: urinary PGE2/TXB2 ratio; experiment: Selective COX-2 and COX-1 blockage in mice, urinary PGE2/TXB2 ratio pre- and post-intervention; type: in vivo, mice (NOD, B6, B6.NODc1t)
Method: Urine was directly aliquoted and stored at −70° C. until assay. Enzyme immunoassay was used to particularly detect renal derived metabolites and the systemic derived metabolites. […] The EIA kits utilize a competitive binding assay between unlabeled compound from the specimen sample and a fixed quantity of peroxidase labeled compound for a limited number of binding sites on a compound specific antibody. Assays were performed in 96 well microtitre plates with 50 μL specimen. The unknown sample was bound to appropriate antiserum and conjugate and optical density read at 450 nm using a BIORAD 3550 UV microplate reader. Raw optical density data was converted to percent binding by plotting the percent binding B/Bo as a function of the log compound concentration. Concentration of the prostanoid compound was then directly calculated in pg/well. This concentration was then converted to pg/mL and subsequently to pg/mg urinary creatinine to adjust for urinary concentration, body size and age. The final ratios of PGE2/TXB2 or PGE2+6kPGF1α/TXB2 were then directly calculated.
Selective COX-2 and COX-1 blockage were analyzed in three groups of mice—NOD mice, B6 mice, and a congenic B6.NODc1t strain.
Eight age-matched female 6-8 week old mice of each strain (NOD, B6, and C1t) were divided into two groups.

[2] = target: T1, COX-2 (Mus musculus, UniProt Q05769); settings: cited from Zhao et al., Mol. Carcinog. 1999; cited from earlier work
T1 construct: cyclooxygenase 2 and interleukin-1 alpha expression in SENCAR mouse epidermis
T1 sequence (Q05769 18-604): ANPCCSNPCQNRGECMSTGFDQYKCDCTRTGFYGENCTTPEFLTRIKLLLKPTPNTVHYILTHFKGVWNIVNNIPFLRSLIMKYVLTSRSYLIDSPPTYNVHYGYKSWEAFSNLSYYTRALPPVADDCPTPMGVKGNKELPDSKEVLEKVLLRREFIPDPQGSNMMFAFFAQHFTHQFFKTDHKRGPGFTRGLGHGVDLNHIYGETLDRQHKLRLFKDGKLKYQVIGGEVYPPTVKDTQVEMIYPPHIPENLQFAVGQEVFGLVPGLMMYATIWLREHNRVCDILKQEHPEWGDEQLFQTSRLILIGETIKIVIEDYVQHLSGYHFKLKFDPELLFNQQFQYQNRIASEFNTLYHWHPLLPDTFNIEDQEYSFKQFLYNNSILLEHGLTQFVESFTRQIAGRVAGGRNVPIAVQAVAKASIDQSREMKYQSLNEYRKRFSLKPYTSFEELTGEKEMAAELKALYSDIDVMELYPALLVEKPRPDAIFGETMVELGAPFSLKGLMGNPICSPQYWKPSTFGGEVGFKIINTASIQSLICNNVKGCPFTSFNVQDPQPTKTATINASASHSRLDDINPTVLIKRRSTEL

SMILES | increase in the urinary PGE2/TXB2 ratio ([1]; 10 mg/kg/d i.p. daily for 14 days, all the three strains of mice (NOD, B6, B6.NODc1t), female 6-8 week old) | difference in urinary PGE2/TXB2 (Dunn's simultaneous multiple comparison test) ([1]; NOD and B6.NODc1t group, COX-2 blocker 10 mg/kg/d i.p. 14 days, pre- vs post-intervention) | COX-2 inhibition relative to COX-1 inhibition [2]
CS(=O)(=O)Nc1ccc([N+](=O)[O-])cc1OC1CCCCC1 [NS-398] | 3-7 fold | significant | –
COc1cc(C2Oc3cc([C@H]4Oc5cc(O)cc(O)c5C(=O)[C@@H]4O)ccc3OC2CO)ccc1O (stereo partly drawn) [silybinin] | – | – | significant COX-2 inhibition
